Patent publication US9228202B2, “Intracellular viral vector delivery method employing iron ion/viral vector composite” (POSTECH ACADEMY-INDUSTRY FOUNDATION, priority 2009, dated 2016)

Columns and labels:
rBMSC [1] = assay: Comparison of intracellular delivery of adenoviral vector among ferrous, ferric and calcium ions; assay type: cell-based, rat; details: rAd/EGFP 30 MOI with 50 μM cation
Experimental: To examine whether ferric irons (Fe^3+) improve the delivery of […] into cells, the adenoviral vector rAd/EGFP, which carries a GFP (green fluorescent protein) gene, was employed. First, 30 or 100 MOI of rAd/EGFP was mixed and incubated with 2 μM, 10 μM or 50 μM ferric ions for 30 min at room temperature, followed by infection for 2 hours into rat bone marrow mesenchymal stem cells (rBMSC), the human cervical cancer cell line HeLa, and the human amelanotic melanoma cell line (A375), all free from the expression of CAR, a primary receptor for adenoviruses. Then, the viral mixture was removed and the medium was changed with DMEM before incubation for two days in a CO2 incubator (CO2 water Jacketed Incubator, Form a Scientific™). The cells were detached by trypsinization and analyzed for intracellular GFP level using FACS (fluorescence activated cell sorter, BD).
Ferrous and ferric ions were compared with calcium ions, known to improve the gene delivery of adenoviral vectors, for efficacy of gene delivery. In this regard, rBMSC was treated with rAd/EGFP (30 MOI) and 50 μM cations (Fe^2+, Fe^3+, Ca^2+) in the same manner as in Example 1, and the efficacy of gene delivery was compared among the cations.

rBMSC [2] = assay: Cytotoxicity assay of ferric ions (CCK8 cell viability); assay type: cell-based, rat
Experimental: A cytotoxicity assay was done with rBMSC in order to evaluate the safety of ferric ions alone or the ferric ion/adenoviral vector composite to the body. rBMSC was incubated for 2 hours with 0.2 μM˜50 mM ferric ions alone or in combination with 100 MOI of an adenoviral vector. On the next day, cell viability was determined using a CCK8 kit (DOJINDO, Japan).

SMILES	gene delivery efficiency relative to calcium ions (rBMSC [1]) [times]	50% cell viability concentration relative to the iron ion concentration used for gene delivery (10~50 μM) (rBMSC [2]) [fold]	iron ion concentration at which cytotoxicity starts (rBMSC [2]; 2 h incubation, CCK8 next day) [mM]	cell viability (rBMSC [2]; iron ion concentration of 50 mM, CCK8)
[Fe+3] [ferric ions]	60	1000	10	decreased to zero
[Fe+2] [ferrous ions]	60	–	–	–
